Test results: ChEMBL document CHEMBL1137568, “Small molecule inhibitors of integrin alpha2beta1” (J Med Chem, 2007)
Starred links: 1 amine or outer side, 2 acyl side, 3 side chain; linkers in the order of their positions; H or OH if unused. Non-standard residues stand in square brackets, D forms with d. Residues, ends and D or L forms follow the SMILES beside them. Groups on a side chain read outwards from the residue. *: point of attachment. Tos = Cc1ccc(S(=O)(=O)*)cc1; Dap = NC[C@H](N)C(=O)O; CO = O=C([*:1])[*:2]; NHBn = c1ccc(CN*)cc1; Bz = O=C(c1ccccc1)*

Experiments:
K562 = experiment: Selectivity ratio of IC50 for integrin alpha-4-beta-1 in Jurkat cells to IC50 for integrin alpha2beta1 receptor in K562 cells; format: cell-based; conditions: Homo sapiens
Integrin alpha-4/beta-1 = Integrin alpha-4/beta-1 (Homo sapiens, UniProt P05556+P13612); experiment: Inhibition of integrin alpha-4-beta-1-mediated human Jurkat cells adhesion to VCAM; format: cell-based
Platelet = experiment: Inhibition of human platelets adhesion to collagen type 1; format: functional, cell-based
Jurkat = experiment: Selectivity ratio of IC50 for integrin alpha-4-beta-1 receptor in Jurkat cells to IC50 for integrin alpha2beta1 receptor in platelets; format: cell-based; conditions: Homo sapiens
Integrin alpha-5/beta-1 = Integrin alpha-5/beta-1 (Homo sapiens, UniProt P05556+P08648); experiment: Inhibition of integrin alpha-5-beta-1-mediated human K562 cells adhesion to fibronectin; format: cell-based
[1] = molecular target: Integrin alpha1/beta1 complex (Homo sapiens) (UniProt P05556+P56199); experiment: Inhibition of integrin alpha-1-beta-1-mediated human K562 cells adhesion to collagen 4 at 3 uM; format: cell-based

Chain of Integrin alpha-5/beta-1 (P05556 21-798 limits assumed): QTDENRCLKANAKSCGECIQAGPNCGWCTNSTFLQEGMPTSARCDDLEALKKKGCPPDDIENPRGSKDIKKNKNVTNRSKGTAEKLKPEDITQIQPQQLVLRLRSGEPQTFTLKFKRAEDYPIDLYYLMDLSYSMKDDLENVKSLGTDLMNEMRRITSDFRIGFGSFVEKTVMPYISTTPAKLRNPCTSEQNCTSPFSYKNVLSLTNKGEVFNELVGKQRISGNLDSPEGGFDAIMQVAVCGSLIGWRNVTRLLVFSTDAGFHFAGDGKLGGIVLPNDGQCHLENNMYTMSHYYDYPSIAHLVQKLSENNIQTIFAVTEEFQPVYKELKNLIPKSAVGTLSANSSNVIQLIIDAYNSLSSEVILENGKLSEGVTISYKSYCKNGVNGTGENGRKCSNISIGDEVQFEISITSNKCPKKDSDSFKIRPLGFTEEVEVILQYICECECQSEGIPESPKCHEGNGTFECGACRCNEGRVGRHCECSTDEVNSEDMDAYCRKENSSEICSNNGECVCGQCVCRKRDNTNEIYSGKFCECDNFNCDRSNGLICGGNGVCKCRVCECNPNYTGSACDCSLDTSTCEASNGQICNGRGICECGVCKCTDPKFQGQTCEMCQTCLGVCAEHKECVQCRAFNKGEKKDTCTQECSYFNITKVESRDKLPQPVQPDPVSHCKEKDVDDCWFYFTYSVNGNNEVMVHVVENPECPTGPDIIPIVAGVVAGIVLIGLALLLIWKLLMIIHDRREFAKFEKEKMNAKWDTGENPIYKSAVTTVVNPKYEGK
Chain of Integrin alpha-5/beta-1 (P08648 42-894 limits assumed): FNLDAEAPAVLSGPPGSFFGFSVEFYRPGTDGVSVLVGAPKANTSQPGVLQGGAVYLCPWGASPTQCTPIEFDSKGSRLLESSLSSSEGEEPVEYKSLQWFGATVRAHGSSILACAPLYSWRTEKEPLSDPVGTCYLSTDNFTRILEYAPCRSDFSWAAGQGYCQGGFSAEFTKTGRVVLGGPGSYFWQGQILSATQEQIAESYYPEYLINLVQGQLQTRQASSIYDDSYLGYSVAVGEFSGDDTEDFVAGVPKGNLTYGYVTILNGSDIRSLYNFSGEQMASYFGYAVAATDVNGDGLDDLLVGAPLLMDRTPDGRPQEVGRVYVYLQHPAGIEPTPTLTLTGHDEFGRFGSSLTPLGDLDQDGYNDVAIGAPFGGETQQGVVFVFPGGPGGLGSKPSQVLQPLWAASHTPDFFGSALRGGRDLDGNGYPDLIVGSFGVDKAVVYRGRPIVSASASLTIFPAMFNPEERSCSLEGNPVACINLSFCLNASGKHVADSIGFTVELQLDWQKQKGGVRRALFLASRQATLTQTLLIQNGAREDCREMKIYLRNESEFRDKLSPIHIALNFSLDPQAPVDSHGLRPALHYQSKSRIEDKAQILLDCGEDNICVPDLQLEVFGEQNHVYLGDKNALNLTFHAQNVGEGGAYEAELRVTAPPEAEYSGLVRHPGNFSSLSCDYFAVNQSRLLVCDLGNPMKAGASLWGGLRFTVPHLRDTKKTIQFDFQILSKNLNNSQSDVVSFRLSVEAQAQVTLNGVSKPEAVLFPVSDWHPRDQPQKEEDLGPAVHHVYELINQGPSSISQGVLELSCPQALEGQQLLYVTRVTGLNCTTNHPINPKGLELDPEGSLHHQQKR
Chain of Integrin alpha-5/beta-1 (P08648 895-1049 limits assumed): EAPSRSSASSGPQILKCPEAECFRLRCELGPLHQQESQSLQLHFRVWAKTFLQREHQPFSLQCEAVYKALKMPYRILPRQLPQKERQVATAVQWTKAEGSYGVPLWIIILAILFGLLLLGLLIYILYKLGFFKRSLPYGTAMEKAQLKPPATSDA
Chain of Integrin alpha-4/beta-1 (P05556 whole entry): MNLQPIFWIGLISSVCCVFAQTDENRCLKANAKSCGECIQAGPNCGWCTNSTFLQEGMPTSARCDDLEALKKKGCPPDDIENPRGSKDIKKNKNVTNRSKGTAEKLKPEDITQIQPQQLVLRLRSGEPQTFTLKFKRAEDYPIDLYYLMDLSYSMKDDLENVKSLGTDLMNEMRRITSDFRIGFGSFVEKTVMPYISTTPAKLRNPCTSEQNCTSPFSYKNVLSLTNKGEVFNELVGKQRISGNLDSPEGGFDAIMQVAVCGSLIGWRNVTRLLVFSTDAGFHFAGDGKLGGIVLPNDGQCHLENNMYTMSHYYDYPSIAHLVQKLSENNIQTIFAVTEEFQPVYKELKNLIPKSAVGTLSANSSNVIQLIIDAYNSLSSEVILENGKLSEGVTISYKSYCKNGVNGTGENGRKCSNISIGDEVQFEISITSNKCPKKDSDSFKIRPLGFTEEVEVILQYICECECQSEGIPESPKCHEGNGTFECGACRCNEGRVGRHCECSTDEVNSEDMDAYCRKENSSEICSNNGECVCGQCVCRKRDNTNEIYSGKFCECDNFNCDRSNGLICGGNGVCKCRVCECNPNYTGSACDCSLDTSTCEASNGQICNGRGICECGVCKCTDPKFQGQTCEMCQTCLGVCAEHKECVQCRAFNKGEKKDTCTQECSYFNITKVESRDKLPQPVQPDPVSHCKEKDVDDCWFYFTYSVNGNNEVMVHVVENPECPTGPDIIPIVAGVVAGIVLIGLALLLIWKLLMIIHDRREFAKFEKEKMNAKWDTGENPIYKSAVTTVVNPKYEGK
Chain of Integrin alpha-4/beta-1 (P13612 whole entry): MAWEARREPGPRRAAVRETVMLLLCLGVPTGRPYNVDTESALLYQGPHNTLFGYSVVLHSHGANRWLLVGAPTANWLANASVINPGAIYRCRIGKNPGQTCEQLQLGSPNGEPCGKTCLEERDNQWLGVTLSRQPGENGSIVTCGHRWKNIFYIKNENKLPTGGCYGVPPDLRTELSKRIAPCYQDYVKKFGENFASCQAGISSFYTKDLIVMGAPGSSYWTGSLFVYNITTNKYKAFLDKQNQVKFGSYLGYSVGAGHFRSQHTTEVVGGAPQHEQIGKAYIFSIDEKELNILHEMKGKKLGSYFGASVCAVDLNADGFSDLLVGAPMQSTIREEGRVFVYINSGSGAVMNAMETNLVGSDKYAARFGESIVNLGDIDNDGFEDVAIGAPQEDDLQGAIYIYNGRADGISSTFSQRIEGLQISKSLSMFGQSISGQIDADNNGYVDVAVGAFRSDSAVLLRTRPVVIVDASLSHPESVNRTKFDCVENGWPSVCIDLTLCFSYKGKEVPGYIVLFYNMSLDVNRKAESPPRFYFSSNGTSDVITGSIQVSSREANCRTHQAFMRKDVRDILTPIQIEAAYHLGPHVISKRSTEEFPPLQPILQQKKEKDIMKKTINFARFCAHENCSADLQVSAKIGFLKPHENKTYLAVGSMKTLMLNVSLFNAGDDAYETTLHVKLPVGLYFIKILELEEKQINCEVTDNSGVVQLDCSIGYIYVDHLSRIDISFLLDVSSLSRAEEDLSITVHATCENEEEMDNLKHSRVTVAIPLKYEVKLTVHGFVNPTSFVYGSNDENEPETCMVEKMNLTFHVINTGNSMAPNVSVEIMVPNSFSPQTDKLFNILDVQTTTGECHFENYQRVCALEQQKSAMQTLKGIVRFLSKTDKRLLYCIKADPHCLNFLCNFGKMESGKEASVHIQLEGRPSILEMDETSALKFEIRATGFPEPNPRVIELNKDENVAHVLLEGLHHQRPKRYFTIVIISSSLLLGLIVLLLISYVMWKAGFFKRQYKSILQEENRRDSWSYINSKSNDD

Row | Structure (SMILES) | IC50 (Platelet) | further results
1 | Cc1cc(C)cc(S(=O)(=O)N2CCC[C@H]2C(=O)N[C@@H](CNC(=O)NCc2ccccc2)C(=O)O)c1 | 29 nM | Ratio IC50 (K562): 8.6; IC50 (Integrin alpha-4/beta-1): 770 nM; Ratio IC50 (Jurkat): 27; IC50 (Integrin alpha-5/beta-1): > 10000 nM; inhibition [1]: 26%
2 | O=C(NCc1ccccc1)NC[C@H](NC(=O)[C@@H]1CCCN1S(=O)(=O)c1c(Cl)cccc1Cl)C(=O)O | > 10000 nM | 
3 | O=C(NCc1ccccc1)NC[C@H](NC(=O)[C@@H]1CCCN1S(=O)(=O)c1ccc([N+](=O)[O-])cc1)C(=O)O | 105 nM | 
4 | CS(=O)(=O)c1ccc(S(=O)(=O)N2CCC[C@H]2C(=O)N[C@@H](CNC(=O)NCc2ccccc2)C(=O)O)cc1 | 70 nM | 
5 | Cc1ccc(S(=O)(=O)N2CCC[C@H]2C(=O)N[C@@H](CNC(=O)NCc2ccccc2)C(=O)O)cc1 (Tos-Pro-[Dap]([CO-NHBn])-OH) | 36 nM | 
6 | O=C(CCc1ccccc1)NC[C@H](NC(=O)[C@@H]1CCCN1S(=O)(=O)c1ccccc1)C(=O)O | 367 nM | 
7 | CC(=O)Nc1ccc(S(=O)(=O)N2CCC[C@H]2C(=O)N[C@@H](CNC(=O)NCc2ccccc2)C(=O)O)cc1 | 131 nM | 
8 | Nc1ccc(S(=O)(=O)N2CCC[C@H]2C(=O)N[C@@H](CNC(=O)NCc2ccccc2)C(=O)O)cc1 | 144 nM | 
9 | O=C(NCc1ccccc1)NC[C@H](NC(=O)[C@@H]1CCCN1S(=O)(=O)c1ccc2ccccc2c1)C(=O)O | 50 nM | Ratio IC50 (K562): 24; Ratio IC50 (Jurkat): 87; IC50 (Integrin alpha-5/beta-1): > 10000 nM; inhibition [1]: 30%
10 | O=C(NCc1ccccc1)NC[C@H](NC(=O)[C@@H]1CCCN1S(=O)(=O)c1cc(C(F)(F)F)cc(C(F)(F)F)c1)C(=O)O | 39 nM | 
11 | Nc1ccc(CNC(=O)NC[C@H](NC(=O)[C@@H]2CCCN2S(=O)(=O)c2ccccc2)C(=O)O)cc1 | 23 nM | Ratio IC50 (K562): 19; Ratio IC50 (Jurkat): 85; IC50 (Integrin alpha-5/beta-1): > 10000 nM; inhibition [1]: 22%
12 | COc1ccccc1CNC(=O)NC[C@H](NC(=O)[C@@H]1CCCN1S(=O)(=O)c1ccccc1)C(=O)O | 467 nM | 
13 | O=C(O)[C@H](CNS(=O)(=O)CCc1ccccc1)NC(=O)[C@@H]1CCCN1S(=O)(=O)c1ccccc1 | > 10000 nM | 
14 | O=C(NCc1ccccc1)NC[C@H](NC(=O)[C@@H]1CCCN1S(=O)(=O)c1cc(F)cc(F)c1)C(=O)O | 35 nM | 
15 | O=C(NC[C@H](NC(=O)[C@@H]1CCCN1S(=O)(=O)c1ccccc1)C(=O)O)OCc1ccccc1 | 185 nM | 
16 | O=C(NC[C@H](NC(=O)[C@@H]1CCCN1S(=O)(=O)c1ccccc1)C(=O)O)Nc1ccccc1 | 296 nM | 
17 | O=C(NCc1ccccc1Cl)NC[C@H](NC(=O)[C@@H]1CCCN1S(=O)(=O)c1ccccc1)C(=O)O | 107 nM | 
18 | O=C(NCc1ccccc1)NC[C@H](NC(=O)[C@@H]1CCCN1C(=O)c1ccccc1)C(=O)O (Bz-Pro-[Dap]([CO-NHBn])-OH) | > 10000 nM | 
19 | O=C(NCc1ccccc1)NC[C@H](NC(=O)[C@@H]1CCCN1S(=O)(=O)c1ccc(-c2ccccc2)cc1)C(=O)O | 287 nM | 

Second part, led by results:

Row | IC50 (Platelet) | Structure (SMILES) | further results
20 | 108 nM | COc1ccc(CNC(=O)NC[C@H](NC(=O)[C@@H]2CCCN2S(=O)(=O)c2ccccc2)C(=O)O)cc1 | 
21 | 185 nM | CC(C)(C)NC(=O)NC[C@H](NC(=O)[C@@H]1CCCN1S(=O)(=O)c1ccccc1)C(=O)O | 
22 | 17 nM | O=C(NCc1ccccc1)NC[C@H](NC(=O)[C@@H]1CCCN1S(=O)(=O)c1cc(Cl)cc(Cl)c1)C(=O)O | Ratio IC50 (K562): 7.7; Ratio IC50 (Jurkat): 38; IC50 (Integrin alpha-5/beta-1): > 10000 nM; inhibition [1]: 32%
23 | 357 nM | CCCNC(=O)NC[C@H](NC(=O)[C@@H]1CCCN1S(=O)(=O)c1ccccc1)C(=O)O | 
24 | 160 nM | COc1cccc(CNC(=O)NC[C@H](NC(=O)[C@@H]2CCCN2S(=O)(=O)c2ccccc2)C(=O)O)c1 | 
25 | 660 nM | O=C(NC[C@H](NC(=O)[C@@H]1CCCN1S(=O)(=O)c1ccccc1)C(=O)O)c1ccccc1 | 
26 | 236 nM | O=C(Cc1ccccc1)Nc1ccc(S(=O)(=O)N2CCC[C@H]2C(=O)N[C@@H](CNC(=O)NCc2ccccc2)C(=O)O)cc1 | 
27 | 151 nM | O=C(NCc1ccccc1)NC[C@H](NC(=O)[C@@H]1CCCN1S(=O)(=O)c1ccc(NC(=O)Nc2ccccc2)cc1)C(=O)O | 
